Measurements reported in patent US10815274B2, “Immunogenic WT-1 peptides and methods of use thereof” (Memorial Sloan Kettering Cancer Center, priority 2012, dated 2020).
Where a SMILES comes first, the peptide text is derived from it.

Legend:
WT1+ leukemia = assay: Cr51 release assay, cytotoxic CTL response vs WT1+ leukemia expressing restricting HLA allele; format: cell-based, human; conditions: 50:1 E:T
From the text: (§1) Twenty-four primary leukemic cells and 1 leukemic cell line were characterized for their expression of WT1 by intracellular FACS staining using murine anti-human WT1 monoclonal antibodies (Neomarkers, Fremont, Calif.) as previously described (32,38) The WT1+ leukemias included blast cells from 11 primary AMLs, 3 primary ALLs and 1B-cell precursor ALL cell line. Ten WT1-leukemias, were used as controls, and included 3 B-cell precursor ALLs and 7 AMLs.
PHA blasts were not available from every patient that provided leukemia blasts for this study.

[1] = tested on: WT1+ allo APC with restricting HLA allele loaded with WT1 peptide; assay: Cr51 release assay, cytotoxic CTL response vs peptide loaded allogeneic APC sharing restricting HLA allele (HLA restriction); conditions: for Cytotoxic CTL response, % vs WT1+ allo APC with restricting HLA allele loaded with WT1 peptide: 50:1 E:T
[2] = tested on: WT1 peptide loaded autologous APC; assay: Cr51 release assay, cytotoxic CTL response vs peptide loaded autologous APC; format: cell-based, human; conditions: 50:1 E:T
WT1- leukemia = assay: Cr51 release assay, cytotoxic CTL response vs WT1- leukemia; format: cell-based, human; conditions: 50:1 E:T
From the text: as §1

[3] = tested on: WT1- allo APC with restricting HLA allele; assay: Cr51 release assay, cytotoxic CTL response vs unloaded allogeneic APC sharing restricting HLA allele; format: cell-based, human; conditions: 50:1 E:T
WT1- autologous APC = assay: Cr51 release assay, cytotoxic CTL response vs unmodified autologous APC; format: cell-based, human; conditions: 50:1 E:T

| SMILES | Cytotoxic CTL response, % vs WT1+ leukemia (WT1+ leukemia; HLA allele A0201) | Cytotoxic CTL response, % vs WT1+ allo APC with restricting HLA allele loaded with WT1 peptide ([1]; HLA allele A0201) | Cytotoxic CTL response, % vs WT1 peptide loaded autologous APC ([2]; HLA allele A0201) | Cytotoxic CTL response, % vs WT1- leukemia (WT1- leukemia; HLA allele A0201) | Cytotoxic CTL response, % vs WT1- allo APC with restricting HLA allele ([3]; HLA allele A0201) | Cytotoxic CTL response, % vs WT1- autologous APC (WT1- autologous APC; HLA allele A0201) | Cytotoxicity of T-cells restricted by HLA A0201 against loaded targets [1] | also measured |
| --- | --- | --- | --- | --- | --- | --- | --- | --- |
| CC[C@H](C)[C@H](NC(=O)[C@H](C)N)C(=O)N[C@@H](CC(C)C)C(=O)N[C@@H](CC(=O)O)C(=O)N[C@@H](Cc1ccccc1)C(=O)N[C@@H](CC(C)C)C(=O)N[C@@H](CC(C)C)C(=O)N[C@@H](CC(C)C)C(=O)N[C@@H](CCC(N)=O)C(=O)O [SEQ ID NO: 147] (H-AILDFLLLQ-OH; N-terminus and C-terminus assumed) | 19% | 17% | 18% | 3% | 3% | 0% |  |  |
| CC(C)C[C@H](NC(=O)[C@H](CS)NC(=O)CNC(=O)[C@@H]1CCCN1)C(=O)N[C@@H](CCC(N)=O)C(=O)N[C@@H](CCC(N)=O)C(=O)N1CCC[C@H]1C(=O)N[C@@H](CCC(=O)O)C(=O)N[C@@H](CCC(N)=O)C(=O)O [SEQ ID NO: 148] (H-PGCLQQPEQ-OH; N-terminus and C-terminus assumed) | 19% | 27% | 54% | 5% | 7% | 6% |  | Cytotoxic CTL response, % vs WT1+ allo APC with restricting HLA allele loaded with WT1 peptide ([1]; HLA allele B4701): 25%; Cytotoxic CTL response, % vs WT1 peptide loaded autologous APC ([2]; HLA allele B4701): 54%; Cytotoxic CTL response, % vs WT1- allo APC with restricting HLA allele ([3]; HLA allele B4701): 1%; Cytotoxic CTL response, % vs WT1- autologous APC (WT1- autologous APC; HLA allele B4701): 6% |
| CC(C)C[C@H](NC(=O)[C@H](C)NC(=O)[C@H](CC(N)=O)NC(=O)[C@H](CC(C)C)NC(=O)[C@H](CC(=O)O)NC(=O)[C@@H](N)CCCNC(=N)N)C(=O)N[C@@H](CC(C)C)C(=O)N1CCC[C@H]1C(=O)N[C@@H](C)C(=O)N[C@H](C(=O)O)C(C)C [SEQ ID NO: 152] (H-RDLNALLPAV-OH; N-terminus and C-terminus assumed) | 9% | 31% | 51% | 0% | 4% | 2% |  | Cytotoxic CTL response, % vs WT1+ allo APC with restricting HLA allele loaded with WT1 peptide ([1]; HLA allele B5701): 22%; Cytotoxic CTL response, % vs WT1 peptide loaded autologous APC ([2]; HLA allele B5701): 44%; Cytotoxic CTL response, % vs WT1- allo APC with restricting HLA allele ([3]; HLA allele B5701): 1%; Cytotoxic CTL response, % vs WT1- autologous APC (WT1- autologous APC; HLA allele B5701): 3% |
| CC(C)C[C@H](N)C(=O)N[C@@H](CC(=O)O)C(=O)N[C@@H](Cc1ccccc1)C(=O)N[C@@H](C)C(=O)N1CCC[C@H]1C(=O)N1CCC[C@H]1C(=O)NCC(=O)N[C@@H](C)C(=O)N[C@@H](CO)C(=O)O [SEQ ID NO: 155] (H-LDFAPPGAS-OH; N-terminus and C-terminus assumed) | 40% | 62% | 73% | 0% | 1% | 0% | able to lyse |  |
| CC(C)C[C@H](N)C(=O)N[C@@H](CC(=O)O)C(=O)N[C@@H](Cc1ccccc1)C(=O)N[C@@H](C)C(=O)N1CCC[C@H]1C(=O)N1CCC[C@H]1C(=O)NCC(=O)N[C@@H](C)C(=O)N[C@@H](CO)C(=O)N[C@@H](C)C(=O)N[C@@H](Cc1ccc(O)cc1)C(=O)O [SEQ ID NO: 156] (H-LDFAPPGASAY-OH; N-terminus and C-terminus assumed) |  |  |  |  |  |  | able to lyse | Cytotoxic CTL response, % vs WT1+ leukemia (WT1+ leukemia; HLA allele DRB10402): 40%; Cytotoxic CTL response, % vs WT1+ allo APC with restricting HLA allele loaded with WT1 peptide ([1]; HLA allele DRB10402): 71%; Cytotoxicity of class II HLA-restricted T-cells against loaded targets ([1]; targets sharing the alleles DRB1 0402 and DQB1 0302): selectively cytotoxic; Cytotoxic CTL response, % vs WT1 peptide loaded autologous APC ([2]; HLA allele DRB10402): 73%; Cytotoxic CTL response, % vs WT1- leukemia (WT1- leukemia; HLA allele DRB10402): 0%; Cytotoxic CTL response, % vs WT1- allo APC with restricting HLA allele ([3]; HLA allele DRB10402): 1%; Cytotoxic CTL response, % vs WT1- autologous APC (WT1- autologous APC; HLA allele DRB10402): 0% |
| C[C@H](NC(=O)[C@@H]1CCCN1)C(=O)N1CCC[C@H]1C(=O)N1CCC[C@H]1C(=O)N1CCC[C@H]1C(=O)N1CCC[C@H]1C(=O)N1CCC[C@H]1C(=O)N1CCC[C@H]1C(=O)N1CCC[C@H]1C(=O)O [SEQ ID NO: 158] (H-PAPPPPPPP-OH; N-terminus and C-terminus assumed) | 0% | 18% | 40% | 0% | 1% | 2% |  |  |
